Reference: patent publication US10266545B2, “Coumarin derivative as antiviral agent, pharmaceutical composition thereof, its preparation and use” (I-NOVA MEDICINSKA ISTRAZIVANJA D.O.O., priority 2016, dated 2019)

Tests used:
[1] = Cytotoxicity (MNC, CC50) by MTT assay on uninfected MT-4 cell line; assay type: cell-based; settings: human; MT-4 cells, 72 h, MTT; read-out: CC50 (cytotoxic concentration for 50% cells)
Experimental: (§1) Cell viability was estimated by a modification of the 3-(4,5-dimethylthiazol-2-yl)-2,5-diphenyltetrazolium bromide (MTT) assay, which is described in the literature reference 9: • 9) T. Mosmann: Rapid colorimetric assay for cellular growth and survival: Application to proliferation and cytotoxicity assays, J. Immunol.
(§2) Both MNC and CC50 values were evaluated simultaneously by morphological and by cell survival criteria. We used MTT-test, determining the living and early apoptotic cells.
(§3) The cells in the suspension culture are growing in clusters. […] Cells were passaged 1:3-1:5 at a density around 6-8·10^4 cells/ml, while the passage was re-suspended repeatedly.
(§4) Cell viability was estimated by a modification of the 3-(4,5-dimethylthiazol-2-yl)-2,5-diphenyltetrazolium bromide (MTT) assay, which is described in the reference 9.
(§5) Since the cell culture we have worked with were suspension, a solution of poly-L-lysine (PLL; Mw=90,000; Sigma-Aldrich, USA) was used for cell attachment on the bottom of a 96-well plate. The plates were treated with 100 μl of PLL at a concentration of 50 μg/ml in phosphate buffered saline (PBS; Sigma-Aldrich, USA), pH=7.4, then incubated for 1 h at room temperature. Followed aspiration of PLL solution and washing the plate twice with sterile PBS. Cells were then seeded at a concentration of 7-8·10^4 cells/100 μl for all experiments. Since the final volume of the culture medium in each well was 200 μl, additional 100 μl of 10% FBS (containing no cells) was added. For the purpose of the experiment, there was no need of forming a dense cell monolayer and after 24 h, when the adherent cells were stick to the plastic, the supernatant was decanted and adding 50 μl of previously prepared dilution of test compound. The well was completed with culture medium (150 μl) to a final volume of 200 μl. The plate was incubated at 37° C. and 5% content of CO2 for 3 days (72 h). Cells grown in medium without the test compound served as a control.
(§6) After 72 h incubation, the medium was replaced with MTT (Sigma Aldrich, USA) and dissolved at a final concentration of 5 mg/ml in serum-free medium, for further 3 h incubation. Then, the MTT-formazan product was solubilised in ethanol/dimethyl sulfoxide (DMSO; Sigma-Aldrich, USA) (1:1, V/V), and the optical density was measured at a test wavelength of 540 nm. Each experiment was performed in triplicate.
(§7) Cell viability was reported as the percentage (%) of viable cells in the wells treated with different concentrations of the test substance compared to the control cells untreated with the substances.

MT-4 cells = assay: as above; assay type: cell-based; settings: for MNC (maximal non-toxic concentration): MT-4 cells, MTT
Experimental: as §1, §2, §3, §4, §5, §6, §7

HIV-1 = assay: Viral load by FDA approved Real-Time PCR test (Abbott m2000) in HIV-1 infected MT-4 cells; assay type: cell-based, HIV-1 subtype B; settings: acute infected MT-4 cells with HIV-1, treated at MNC 0.01 mM
Experimental: The preparation of the MT-4 cell line and HIV-1 culture was the same as in previously described studies. Monitoring of the amount of virions during anti-viral analysis by measuring of the viral load with FDA approved test was performed as follows: The study was conducted with Real-Time polymerase chain reaction (PCR) test for in vitro quantitative assay of HIV-I with automated system Abbott Molecular's m2000, approved by the United States (US) Food and Drug Administration (FDA), and with the CE mark. Extraction of viral nucleic acid was carried out with an automatic extractor with magnetic particles—Abbott Molecular's m2000sp and Real-Time amplification; detection was performed with m2000rt. The sensitivity and range of the test was 40 (1.6 log copies/ml) to 10,000,000 (7.0 log copies/ml) copies/ml by the extraction of 1 ml of sample. The target region of the viral genome was a fragment of the integrase gene pol. The test was designed to detect HIV-1 subtypes A-H, group […] and N. In every test sample, an internal control was placed.
The study included three controls: negative, low positive, and high positive with the following result: • (i) negative control—result negative (not detected); • (ii) low positive control—result 938 copies/ml (2.97 log) control levels; and • (iii) high positive control—result 92,927 copies/ml (4.97 log) control levels. […]

[2] = 72 h, highest concentration of 100 mM, could be due to DMSO
[3] = 72 h after treatment, concentration range from 10 mM to 0.01 mM

| SMILES | CC50 at 72 h [1] | microscopic observation of the morphology of the monolayer (MT-4 cells; [2]) | microscopic observation of the morphology of the monolayer (MT-4 cells; [3]) | MNC (maximal non-toxic concentration) (MT-4 cells; 72 h) | Viral load (log) (HIV-1) |
| --- | --- | --- | --- | --- | --- |
| O=c1oc2cc(O)c(O)cc2c(O)c1-c1coc2c1c(=O)oc1cc(O)c(O)cc12 [Compound 2, 7,8-dihydroxy-3-(4,6,7-trihydroxy-2-oxo-2H-chromen-3-yl)-4H-furo[3,2-c]chromen-4-one, reference compound] | 10 mM | some morphology changes | typical cytopathology characterizing toxic effects were not registered | 0.01 mM | (3.09 log) |
| O=c1oc2cc(O)cc(O)c2c(O)c1-c1coc2c1c(=O)oc1cc(O)cc(O)c12 [Compound 1, 7,9-dihydroxy-3-(4,5,7-trihydroxy-2-oxo-2H-chromene-3-yl)-4H-furo[3,2-c]chromen-4-one] | 10 mM | some morphology changes | typical cytopathology characterizing toxic effects were not registered | 0.01 mM | (3.01 log) |
